Assay results from US20230310352A1, “NOVEL COMPOSITIONS AND METHODS FOR THE TREATMENT OF LUNG FIBROSIS” (LAURENT PHARMACEUTICALS INC., priority 2020, published 2023).
“Also recorded” adds a separate entry of the source.

Tests used:
[1] = system: Normal human lung fibroblast cells (NHLF cells, ATCC CRL-7000); experiment: αSMA mRNA transcript by qRT-PCR after TGF-β1 exposure in NHLF; type: cell-based; settings: TGF-β1 2 ng/mL + fenretinide 1, 2, 3, 4 μM, 3 days, 5% FBS
Procedure: Normal human lung fibroblast cells (NHLF cells, ATCC CRL-7000, EMEM media; 5% FBS) were incubated for 3 days at 37° C. and treated with TGF-β1 (2 ng/mL) or TGF-β1 (2 ng/mL)+Fenretinide (1, 2, 3, 4 μM). At the end of the 3 day-treatment period, media was removed using a vacuum pump and total ribonucleic acid (RNA) was isolated using the TriReagent protocol (BioShop) and cDNA was obtained by reverse transcription using the SUPERSCRIPT® VILO®. αSMA transcript levels were determined by quantitative real-time Polymerase Chain Reaction (qRT-PCR) using the Fast SyBR Master Mix and specific probes, and quantified following the ΔΔCT, normalized to PUM-1 expression as internal control. The experiment was performed in quadruplicate (4 wells/condition).

[2] = system: Normal human lung fibroblast cells (NHLF cells, ATCC CRL-7000); experiment: α-SMA protein by ELISA after TGF-β1 exposure in NHLF; type: cell-based; settings: TGF-β1 2 ng/mL + fenretinide 1, 2, 3, 4 μM, 3 days
Procedure: (§1) NHLF cells were incubated for 3 days at 37° C. and treated with TGF-β1 (2 ng/mL) or TGF-β1 (2 ng/mL)+fenretinide (1, 2, 3, 4 μM). At the end of the 3 day-treatment period, media was collected in identified tubes, centrifuged at 2,000×g for 20 minutes and stored at −80° C. Cells were collected using trypsin, transferred in identified tubes and centrifuged at 1,000×g for 5 minutes. Cells were then washed twice in phosphate buffered saline (PBS) 1X prior to be resuspended in ELISA lysis buffer. α-SMA protein contents were determined using Abcam ELISA detection kit (Ab240678). The experiment was performed in quadruplicate.

[3] = system: Normal human lung fibroblast cells (NHLF cells, ATCC CRL-7000); experiment: Pro-collagen 1A1 protein by ELISA after TGF-β1 exposure in NHLF; type: cell-based; settings: TGF-β1 2 ng/mL + fenretinide 1, 2, 3, 4 μM, 3 days
Procedure: as §1, with “ng/mL)+Fenretinide” for “ng/mL)+fenretinide”, “2,000 g” for “2,000×g”, “1,000 g” for “1,000×g”, “PBS” for “phosphate buffered saline (PBS)”, “Pro-collagen 1A1” for “α-SMA”, “(Ab210966). Experiment” for “(Ab240678). The experiment was”

human lung microtissues = experiment: Contractile force of TGF-β1 treated 3D lung microtissues (micropillar deflection); type: cell-based; settings: for contractile force, reduction vs TGF-β1 only treated condition, percentage change: Day 6
Description: The lung microtissue chip system used is based on bio-MEMS technology that can assemble 3D cell-populated submillimeter microtissues in arrays of polydimethylsiloxane (PDMS) microwells. In each microwell, human lung fibroblasts or epithelial cells spontaneously contract and assemble the matrix proteins, such as collagen, into microtissues that anchor on top of an array of micropillars. The flexible micropillars serve as in situ force sensors that can report the contractile force generated by the tissue.
The effect of fenretinide on the inhibition of microtissue contractile force in a preventative treatment regimen was also measured. Increased contractile force is one of the main biomechanical features associated with fibrosis progression. The spontaneous contraction force generated by individual microtissues was determined from the deflection of micropillars based on cantilever bending theory. Micropillar deflection was measured using phase contrast microscopy, by comparing the deflected position of the centroid of each pillar top to the centroid of its base. Microtissue contraction force was measured for the same batch of samples on a daily basis for each pharmacological condition. The micropillar spring constant was determined based on the actual geometry of the micropillar and the elastic modulus of the PDMS. […] In contrast, the force developed by untreated samples plateaued after 1 day at around 80 μN. […] The 4 μM fenretinide dose reduced the contractile force by Day 6 to around 70 μN, a reduction of about 38% as compared to TGF-β1 treated condition.
The effect of fenretinide 4 μM dose on the inhibition of microtissue contractile force was tested in a therapeutic treatment regimen. Fibrosis was first allowed to progress for three days under the induction of TGF-β1 (5 ng/ml) and fenretinide was then added from day 3 to day 6 to model a therapeutic treatment. […] TGF-β1 present in media for 3 days and absent for following 3 days (mean±SD, n=8). However, on day 6 as compared to day 3, fenretinide at 2 μM reduced the tissue contractility by 10%, 4 μM fenretinide by 15% and the combination of 2 μM fenretinide and 1.6 mM pirfenidone by 26%.

[4] = system: lung fibroblast-populated long microtissue; experiment: Lung fibroblast-populated long microtissue, model of traction bronchiectasis; type: cell-based, human
Description: In a fibrotic lung, traction bronchiectasis occurs when small bronchial openings dilate due to traction force exerted by the surrounding fibrotic tissue. To model this unique fibrosis feature of the lung, stress concentrations were patterned to induce the dilation of tissue openings in the engineered microtissues described in Example 2. In order to further increase local stress levels, rigid micropillars were designed to support the long microtissue. In order to experimentally model the mechanical process of traction bronchiectasis, lung fibroblast-populated long microtissue was induced to fibrosis using TGF-β1 treatment (5 ng/ml). Continuous TGF-β1 treatment for 6 days induced increased expression of α-SMA and pro-collagen type 1 across the entire microtissue, in addition to dilated tissue openings around the micropillars. These effects were absent in untreated conditions. To examine the effects of fenretinide (2 μM and 4 μM doses) in inhibiting traction bronchiectasis, fenretinide was co-administered with TGF-β1 at the beginning of long microtissue culture and remained for 6 days. The unique geometry of the long microtissue allows tissue opening (hole) formation around micropillars under elevated contractile force generated by the differentiated myofibroblasts, mimicking the traction bronchiectasis. […] FIG. 9 presents the quantified opening area/total tissue area ratio.

VEGF = experiment: Mouse model of LPS-induced acute respiratory distress syndrome, BALF VEGF; type: in vivo; settings: inhaled fenretinide, LPS-induced ARDS mouse model
Cftr.KO mice = settings: cited from earlier work

SMILES: CC1=C(/C=C/C(C)=C/C=C/C(C)=C/C(=O)Nc2ccc(O)cc2)C(C)(C)CCC1 [fenretinide, 4-hydroxyphenyl retinamide]
- induction of α-SMA fibrotic marker expression (mRNA, qRT-PCR) [1]: attenuates, in a dose-dependent manner; also recorded: dose-dependent attenuation
- induction of fibrotic marker α-SMA protein levels (ELISA) [2]: attenuate and, at certain doses, completely abolish; also recorded: attenuates in a dose-dependent manner; also recorded: dose-dependent attenuation
- induction of Pro-collagen 1A1 protein levels (ELISA) [3]: attenuate and, at certain doses, completely abolish; also recorded: dose-dependent attenuation
- induction of Pro-collagen 1A1 protein levels (ELISA) ([3]; listed as Fenretinide): dose-dependent attenuation
- inhibition at 4 µM (human lung microtissues; Homo sapiens, therapeutic treatment, 4 μM, read-out: inhibition of contractile force as compared to TGF-β1 only treated condition (positive control)): 57%
- TGF-β1-induced increase in contractile force (human lung microtissues; preventative treatment, 2 μM and 4 μM): inhibit TGF-131-induced increase in contractile force in a dose-dependent manner
- microtissue contractile force (human lung microtissues; preventative treatment, 2 μM, 6-day measurement (TGF-β1 only around 130 μN, untreated around 80 μN)): 80-85 μN
- contractile force, reduction vs TGF-β1 only treated condition, percentage change (human lung microtissues; preventative treatment, 2 μM): about 28%
- contractile force, reduction vs TGF-β1 only treated condition, percentage change (human lung microtissues; preventative treatment, 2 μM, listed as Fenret): 28.0%
- contractile force, reduction vs TGF-β1 only treated condition, percentage change (human lung microtissues; preventative treatment, 4 μM): about 38%
- microtissue contractile force (human lung microtissues; preventative treatment, 4 μM, Day 6 (TGF-β1 only around 130 μN, untreated around 80 μN)): around 70 μN
- contractile force, reduction vs TGF-β1 only treated condition, percentage change (human lung microtissues; preventative treatment, 4 μM, listed as Fenret): 38.0%
- reduction of tissue contractility on day 6 as compared to day 3 (human lung microtissues; therapeutic treatment, 2 μM): 10%
- reduction of tissue contractility on day 6 as compared to day 3 (human lung microtissues; therapeutic treatment, 4 μM): 15%
- contractile force, reduction vs TGF-β1 +3/−3 group on day 6, percentage change (human lung microtissues; therapeutic treatment, added day 3 to day 6, 2 μM): 34%
- contractile force, reduction vs TGF-β1 +3/−3 group on day 6, percentage change (human lung microtissues; therapeutic treatment, added day 3 to day 6, 2 μM, listed as Fenret): 34.0%
- contractile force, reduction vs TGF-β1 +3/−3 group on day 6, percentage change (human lung microtissues; therapeutic treatment, added day 3 to day 6, 4 μM): 34%
- contractile force, reduction vs TGF-β1 +3/−3 group on day 6, percentage change (human lung microtissues; therapeutic treatment, added day 3 to day 6, 4 μM, listed as Fenret): 34.0%
- expression level of α-SMA in the long microtissue ([4]; TGF-β1 5 ng/ml, 6 days, 4 μM): strongly inhibited
- pro-collagen expression in the long microtissue ([4]; TGF-β1 5 ng/ml, 6 days, 4 μM): a similar trend
- tissue openings around micropillars (traction bronchiectasis) ([4]; co-administered with TGF-β1 5 ng/ml for 6 days, 2 μM and 4 μM): tissue openings remained small
- bronchoalveolar lavage fluid (BALF) VEGF (VEGF): significant increase
- levels of DHA and AA and sphingolipids imbalance in the lungs and plasma (Cftr.KO mice): correct the levels
- lung inflammation (Cftr.KO mice): reduction
- pulmonary load of Pseudomonas aeruginosa (Cftr.KO mice): significant decrease
